Data as given in patent publication US6077845A, “Acridin derivatives” (Gruenenthal GmbH, priority 1998, dated 2000).
pKi: −log10 of the molar value. Where a name gives a salt, the structure may show the parent alone.

Target: T1, δ-opiate receptor (Rattus norvegicus, UniProt P33533)
T1 construct: from tissue; host or cells: rat brain (male Wistar) without cerebellum and medulla oblongata, membrane homogenate
Assay: δ-Opiate receptor binding ([3H]-2-D-Ala-deltorphin II displacement, rat brain membrane homogenate)
Design: species or system rat (male Wistar)
Settings: 1 nmole/l [3H]-2-D-Ala-deltorphin II, 90 minutes at 37° C., pH 7.4, mean ± standard deviation of three independent tests, Ki from IC50 by Cheng-Prussoff
Experimental: δ-Opiate receptor binding investigations
Tests to determine the affinity of the compounds of formula I according to the invention for δ-opiate receptors were performed on meninx homogenates (homogenates of rat's brain, without the cerebellum and medulla oblongata, taken from male Wistar rats).
For this purpose, freshly prepared rat brains were each homogenised, while being cooled in ice, in 50 mmoles/l Tris-HCl (pH 7.4) and were centrifuged for 10 minutes at 5000 g and […]. After decantation and after rejecting the supernatant liquor, followed by renewed take-up and homogenization of the membrane sediment in 50 mmoles/l Tris-HCl (pH 7.4), the homogenate was subsequently centrifuged for 20 minutes at 20,000 g and […]. This washing step was repeated again. Thereafter, the supernatant liquor was decanted and the membrane sediment was homogenized in cold 50 mmoles/l Tris-HCl, 20% glycerol (w/v), 0.01% bacitracin (w/v) (pH 7.4) and aliquots thereof were frozen until required for testing. For the receptor binding tests, the aliquots were thawed and were diluted 1:10 with the binding test buffer. A solution of […] MgCl2 (pH 7.4), supplemented by 0.1 (w/v) bovine serum albumin, was used as the buffer in the binding tests; 1 nmole/l [^3 H]-2-D-Ala-deltorphin II was used as the radioactive ligand. The proportion of non-specific binding was determined in the presence of 10 μmoles/l naloxon.
In further batches, the compounds according to the invention were added in a series of concentrations and the displacement of the radioactive ligand from its specific binding site was determined. The batches concerned, which were each tested in triplicate, were incubated for 90 minutes at 37° C. and were subsequently harvested in order to determine the radioactive ligand which was bound to the membrane homogenate by filtration through a glass fibre filter (GF/B). The glass fiber filter discs were dried, and the radioactivity thereof was measured in a β-counter after adding a scintillator.
The affinity of the compounds according to the invention for the δ-opiate receptor was calculated as the IC50 value according to the law of mass action, by means of nonlinear regression. Ki values were calculated from the IC50 values using the Cheng-Prussoff equation. The Ki values in Table 1 are given as the mean value±standard deviation of three tests which were independent of each other.

T1 sequence (P33533 whole entry): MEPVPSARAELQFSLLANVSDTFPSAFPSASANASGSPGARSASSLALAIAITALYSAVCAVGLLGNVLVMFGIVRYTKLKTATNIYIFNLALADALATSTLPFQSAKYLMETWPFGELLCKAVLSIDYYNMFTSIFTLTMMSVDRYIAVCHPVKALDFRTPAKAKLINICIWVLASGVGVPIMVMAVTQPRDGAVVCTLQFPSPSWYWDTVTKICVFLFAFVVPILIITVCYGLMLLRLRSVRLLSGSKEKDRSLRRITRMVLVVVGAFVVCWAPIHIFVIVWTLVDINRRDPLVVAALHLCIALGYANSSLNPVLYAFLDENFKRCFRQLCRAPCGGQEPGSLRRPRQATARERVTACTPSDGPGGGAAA

Structure (SMILES) | pKi
COc1cccc([C@@H]2c3cc4ccccc4nc3CC[C@H]2CN(C)C)c1 (racemic) [rac-trans-[1-(3-methoxy-phenyl)-1,2,3,4-tetrahydro-acridin-2-yl-methyl]-dimethylamine hydrochloride] | 6.90
CN(C)C[C@H]1CCc2nc3ccccc3cc2[C@@H]1c1cccc(O)c1 (relative stereo) [rac-trans-[3-(2-dimethylaminomethyl-1,2,3,4-tetrahydro-acridin-1-yl)]-phenol hydrochloride] | 8.38
CN(C)CC1=C(c2cccc(O)c2)c2cc3ccccc3nc2CC1(C)C [3-(2-dimethylaminomethyl-3,3-dimethyl-3,4-dihydro-acridin-1-yl)-phenol hydrochloride] | 7.54
COc1cccc(C2=C(CN(C)C)CCc3nc4ccccc4cc32)c1 [[1-(3-methoxy-phenyl)-3,4-dihydro-acridin-2-yl-methyl]-dimethylamine hydrochloride] | 6.88
CN(C)CC1=C(c2cccc(O)c2)c2cc3ccccc3nc2CC1 [[3-(2-dimethylaminomethyl-3,4-dihydro-acridin-1-yl)]-phenol hydrochloride] | 8.42
